≈ marks a conversion by molar mass, not a printed value.
Legend:
[1] = molecular target: quisqualate type receptors (rat cerebral cortical membrane homogenate); test: 3H-AMPA binding (displacement of 3H-AMPA from the quisqualate type receptors); conditions: displacement of 50% of specific 3H-AMPA binding; 5 nM 3H-AMPA, 0° C., 30 min, pH 7.1
Method: (§1) The pharmacological properties of the compounds of the present invention can be illustrated by determining their capability for displacing radioactively labelled 2-amino-3-hydroxy-5-methyl-4-isoxazolepropionic acid (AMPA) from the quisqualate type receptors.
The displacement activity of the compounds may be shown by determining the IC50 value which represents the concentration (μg/ml) which causes a displacement of 50% of the specific binding of ^3 H-AMPA.
500 μl of thawed rat cerebal cortical membrane homogenate in Tris-HCl (30 mM), CaCl2 (2.5 mM) and KSCN ([…]) pH 7.1 were incubated at 0° C. for 30 min. with 25 μl ^3 H-AMPA (5 nM final concentration) and the test compound and buffer. Nonspecific binding was determined by incubation with L-glutamic acid (600 μM final concentration). The binding reaction was terminated by adding 5 ml of ice-cold buffer followed by filtration through Whatman GF/C glass fibre filters and 2×5 ml wash with ice-cold buffer. Bound radioactivity was measured by scintillation counting. IC50 was determined by Hill analysis of at least four concentrations of test compound.

[2] = system: quisqualic acid stimulated Na+-efflux from rat striatal slices; test: Antagonism of quisqualic acid induced 22Na+-release; format: cell-based; conditions: concentration reducing quisqualic acid (2 μg/ml) stimulated 22Na+ efflux rate by 50%
Method: as §1
The antagonism is measured by determining the EC50 value which represents the concentration which reduces the rate of quisqualic acid stimulated sodium efflux by 50%.
Antagonism of quisqualic acid induced ^22 Na^+ -release
Slices from rat striatum were preincubated with ^22 Na^+ for 30 min. After the ^22 Na^+ loading period, the slices were successively and every minute transferred through a series of tubes, each containing 1.5 ml of a non-radioactive physiological solution saturated with O2, with the help of a basket shaped sieve. Quisqualic acid (2 μg/ml) was present in the last 5 tubes and the compound to be tested was present in the same 5 tubes plus 3 tubes before. The amount of radioactivity in each washout tube as well as that left in the slices at the end of the experiment was measured by scintillation counting. EC50 -values were calculated by Hill analysis from at least three different concentrations of test compound as the concentration of test compound which reduces the efflux rate of ^22 Na^+ -ions to 50% of the efflux rate in the absence of test compound.

SMILES | IC50 [1] | EC50 [2]
N#Cc1cc2nc(O)c(O)nc2cc1C(F)(F)F [Example 5, 6-Cyano-2,3-dihydroxy-7-trifluoromethylquinoxaline] | 0.39 µg/mL (≈ 1.53 µM) | 
N#Cc1cc2nc(O)c(O)nc2cc1[N+](=O)[O-] [Example 2, 6-Cyano-2,3-dihydroxy-7-nitroquinoxaline] | 0.06 µg/mL (≈ 0.258 µM) | 0.7 µg/mL (≈ 3.02 µM)
O=[N+]([O-])c1cc2nc(O)c(O)nc2cc1Cl [Example 7, 6-Chloro-2,3-dihydroxy-7-nitroquinoxaline] | 0.43 µg/mL (≈ 1.78 µM) | 3 µg/mL (≈ 12.4 µM)
[N-]=[N+]=Nc1cc2nc(O)c(O)nc2cc1[N+](=O)[O-] [Example 3, 6-Azido-2,3-dihydroxy-7-nitroquinoxaline] | 0.26 µg/mL (≈ 1.05 µM) | 3 µg/mL (≈ 12.1 µM)
N#Cc1cc2nc(O)c(O)nc2cc1Cl [Example 8, 6-Chloro-7-cyano-2,3-dihydroxyquinoxaline] | 0.82 µg/mL (≈ 3.7 µM) | 

— patent US4812458A, “6,7-disubstituted-2,3-dihydroxyquinoxaline compounds, pharmaceutical compositions thereof, and their use as neuroleptics” (A/S Ferrosan, priority 1987, dated 1989)
